# In patent US7507727B2, “Substituted quinobenzoxazine analogs and methods of using thereof” (Cylene Pharmaceuticals, Inc., priority 2003, dated 2009):
# Target: c-Myc template DNA (c-myc quadruplex)
# Assay: Quadruplex binding / stop assay (Taq polymerase arrest, capillary electrophoresis)
# Conditions: read-out: Stop Data c-Myc μM; concentration at which 50% of the DNA was arrested (arrested:full-length 1:1)
row,IC50,SMILES
1,1.75 µM,COc1ccc(OC)c(CCNc2c(F)cc3c(=O)c(C(=O)NCCC4CCCN4C)cn4c3c2Oc2cc3ccccc3cc2-4)c1 (centres unmarked) [compound 291]
2,1.75 µM,CN1CCCC1CCNC(=O)c1cn2c3c(c(NCC(O)CO)c(F)cc3c1=O)Oc1cc3ccccc3cc1-2 (centres unmarked) [compound 292]
3,1.75 µM,CN1CCCC1CCNC(=O)c1cn2c3c(c(NCCCO)c(F)cc3c1=O)Oc1cc3ccccc3cc1-2 (centres unmarked) [compound 293]
4,1.75 µM,C[C@H](O)CNc1c(F)cc2c(=O)c(C(=O)NCCC3CCCN3C)cn3c2c1Oc1cc2ccccc2cc1-3 (some centres unmarked) [compound 294]
5,1.75 µM,CC1CCCN(CCCNc2c(F)cc3c(=O)c(C(=O)NCCC4CCCN4C)cn4c3c2Oc2cc3ccccc3cc2-4)C1 (centres unmarked) [compound 295]
6,1.75 µM,CC1CCCC(C)N1CCCNc1c(F)cc2c(=O)c(C(=O)NCCC3CCCN3C)cn3c2c1Oc1cc2ccccc2cc1-3 (centres unmarked) [compound 296]
7,1.75 µM,CN1CCCC1CCNC(=O)c1cn2c3c(c(NCCCNC(=O)OC(C)(C)C)c(F)cc3c1=O)Oc1cc3ccccc3cc1-2 (centres unmarked) [compound 297]
8,1.75 µM,CN1CCCC1CCNc1c(F)cc2c(=O)c(C(N)=O)cn3c2c1Oc1cc2ccccc2cc1-3 (centres unmarked) [compound 298]
9,1.75 µM,COc1ccc2[nH]cc(CCNC(=O)c3cn4c5c(c(N6CCC(N)C6)c(F)cc5c3=O)Oc3cc5ccccc5cc3-4)c2c1 (centres unmarked) [compound 299]
10,1.75 µM,NC1CCN(c2c(F)cc3c(=O)c(C(=O)NCC(O)CO)cn4c3c2Oc2cc3ccccc3cc2-4)C1 (centres unmarked) [compound 300]
11,1.75 µM,CC1CCCN(CCCNC(=O)c2cn3c4c(c(N5CCC(N)C5)c(F)cc4c2=O)Oc2cc4ccccc4cc2-3)C1 (centres unmarked) [compound 301]
12,1.75 µM,CCCCN1CCC(CNC(=O)c2cn3c4c(c(N5CCC(N)C5)c(F)cc4c2=O)Oc2cc4ccccc4cc2-3)CC1 (centres unmarked) [compound 302]
13,1.13 µM,CN1CCN(CCCNC(=O)c2cn3c4c(c(N5CC[C@@H](N)C5)c(F)cc4c2=O)Oc2c-3ccc3ccccc23)CC1 [compound 304]
14,1.05 µM,CCN(CC)CCNc1c(F)cc2c(=O)c(C(=O)N3CCOCC3)cn3c2c1Oc1cc2ccccc2cc1-3 [compound 305]
15,1 µM,O=C(NCCCn1ccnc1)c1cn2c3c(c(NCCCN4CCOCC4)c(F)cc3c1=O)Oc1cc3c(cc1-2)oc1ccccc13 [compound 313]
16,1 µM,O=C(NCCCn1ccnc1)c1cn2c3c(c(NCCCN4CCOCC4)c(F)cc3c1=O)Oc1cc3c(cc1-2)-c1ccccc1C3 [compound 314]
17,1 µM,O=C(Nc1ccncc1)c1cn2c3c(c(NCCCN4CCOCC4)c(F)cc3c1=O)Oc1cc3c(cc1-2)oc1ccccc13 [compound 315]
18,1 µM,CC(C)NCCCNc1c(F)cc2c(=O)c(C(=O)N3CCOCC3)cn3c2c1Oc1cc2ccccc2cc1-3 [compound 316]
19,1 µM,CN(C)CCCCNC(=O)c1cn2c3c(c(NCCN4CCCC4)c(F)cc3c1=O)Oc1cc3ccccc3cc1-2 [compound 317]
20,1 µM,CN(C)CCCCNc1c(F)cc2c(=O)c(C(=O)NCCN3CCCC3)cn3c2c1Oc1cc2ccccc2cc1-3 [compound 318]
21,1 µM,O=C(CCN1CCCCC1)N[C@@H]1CCN(c2c(F)cc3c(=O)c(C(=O)NCCN4CCOCC4)cn4c3c2Oc2cc3c(cc2-4)oc2ccccc23)C1 [compound 319]
22,1 µM,O=C(O)c1cn2c3cc4c(cc3oc3c(F)c(F)cc(c1=O)c32)c(=O)c1ccccc14 [compound 320]
23,1 µM,O=C(NCCN1CCOCC1)c1cn2c3cc4c(cc3oc3c(NCCN5CCOCC5)c(F)cc(c1=O)c32)c(=O)c1ccccc14 [compound 321]
24,1 µM,CC(C)(C)OC(=O)N[C@@H]1CCN(c2c(F)cc3c(=O)c(C(=O)NCCCCN=C(N)N)cn4c3c2Oc2cc3ccccc3cc2-4)C1 [compound 322]

row,IC50,SMILES
1,1 µM,CC(C)(C)OC(=O)NC1CCN(c2c(F)cc3c(=O)c(C(=O)NCCCCN4CCCC4)cn4c3c2Oc2cc3ccccc3cc2-4)C1 (centres unmarked) [compound 323]
2,1 µM,CN1CCCC1CCNC(=O)c1cn2c3c(c(N4CCC(n5c(=O)[nH]c6ccccc65)CC4)c(F)cc3c1=O)Oc1cc3ccccc3cc1-2 (centres unmarked) [compound 324]
3,1 µM,CN1CCCC1CCNC(=O)c1cn2c3c(c(NC4CC(C)(C)NC(C)(C)C4)c(F)cc3c1=O)Oc1cc3ccccc3cc1-2 (centres unmarked) [compound 325]
4,1 µM,CN(C)CCCCNc1ccc2c(=O)c(C(=O)NCCN3CCCC3)cn3c2c1Oc1cc2ccccc2cc1-3 [compound 326]
5,1 µM,N=C(N)NCCCNC(=O)c1cn2c3c(c(N4CC5CCCNC5C4)c(F)cc3c1=O)Oc1cc3ccccc3cc1-2 (centres unmarked) [compound 327]
6,1 µM,N=C(N)NCCCCNC(=O)c1cn2c3c(c(N4CC5CCCNC5C4)c(F)cc3c1=O)Oc1cc3ccccc3cc1-2 (centres unmarked) [compound 328]
7,1 µM,CN(C)CC(C)(C)CNC(=O)c1cn2c3c(c(N4CCC(N)C4)c(F)cc3c1=O)Oc1cc3ccccc3cc1-2 (centres unmarked) [compound 329]
8,1 µM,N=C(N)NCCCCNC(=O)c1cn2c3c(c(NCCCN4CCOCC4)c(F)cc3c1=O)Oc1cc3ccccc3cc1-2 [compound 330]
9,1 µM,N=C(N)NCC1CCCC(CNC(=O)c2cn3c4c(c(NCCCN5CCOCC5)c(F)cc4c2=O)Oc2cc4ccccc4cc2-3)C1 (centres unmarked) [compound 331]
10,1 µM,CN(C)CC(C)(C)CNC(=O)c1cn2c3c(c(NCCCN4CCOCC4)c(F)cc3c1=O)Oc1cc3ccccc3cc1-2 [compound 332]
11,1 µM,N=C(N)NCCCNC(=O)c1cn2c3c(c(NCCN4CCCC4)c(F)cc3c1=O)Oc1cc3ccccc3cc1-2 [compound 333]
12,1 µM,N=C(N)NCCCCNC(=O)c1cn2c3c(c(NCCN4CCCC4)c(F)cc3c1=O)Oc1cc3ccccc3cc1-2 [compound 334]
13,1 µM,CN1CCCC1CCNC(=O)c1cn2c3c(c(NCCCn4ccnc4)c(F)cc3c1=O)Oc1cc3ccccc3cc1-2 (centres unmarked) [compound 335]
14,1 µM,CCCCN1CCC(CNc2c(F)cc3c(=O)c(C(=O)NCCC4CCCN4C)cn4c3c2Oc2cc3ccccc3cc2-4)CC1 (centres unmarked) [compound 336]
15,1 µM,CC1CCCC(C)N1CCCNC(=O)c1cn2c3c(c(N4CCC(N)C4)c(F)cc3c1=O)Oc1cc3ccccc3cc1-2 (centres unmarked) [compound 337]
16,1 µM,CN1CCCC1CCNC(=O)c1cn2c3c(c(NC4CCS(=O)(=O)C4)c(F)cc3c1=O)Oc1cc3ccccc3cc1-2 (centres unmarked) [compound 338]
17,0.94 µM,CN1CCC[C@H]1CCNC(=O)c1cn2c3c(c(N4CCC(c5cnccn5)C4)c(F)cc3c1=O)Oc1cc3ccccc3cc1-2 (some centres unmarked) [compound 339]
18,0.9 µM,CN1CCN(CCCNC(=O)c2cn3c4c(c(NCCCN5CCN(C)CC5)c(F)cc4c2=O)Oc2cc4ccccc4cc2-3)CC1 [compound 342]
19,0.9 µM,CN1CCN(CCCNC(=O)c2cn3c4cc5c(=O)c6ccccc6c(=O)c5cc4oc4c(F)c(F)cc(c2=O)c43)CC1 [compound 344]
20,0.9 µM,COC(=O)C(CO)NC(=O)c1cn2c3cc4c(=O)c5ccccc5c(=O)c4cc3oc3c(NCCN4CCCC4)c(F)cc(c1=O)c32 (centres unmarked) [compound 345]
21,0.9 µM,CN1CCCC1CCNC(=O)c1cn2c3cc4c(=O)c5ccccc5c(=O)c4cc3oc3c(NCCC4CCCN4C)c(F)cc(c1=O)c32 (centres unmarked) [compound 346]
22,0.9 µM,CN(C)CCCCNC(=O)c1cn2c3cc4c(=O)c5ccccc5c(=O)c4cc3oc3c(NCCC4CCCN4C)c(F)cc(c1=O)c32 (centres unmarked) [compound 347]
23,0.9 µM,CN1CCCC1CCNC(=O)c1cn2c3cc4c(=O)c5ccccc5c(=O)c4cc3oc3c(NCCCN4CCOCC4)c(F)cc(c1=O)c32 (centres unmarked) [compound 348]
